Counter-ions that a name gives are not always drawn.
These compounds were tested against T1, Serine Palmitoyl Transferase (SPT); microsomes from HEK 293 cells stably transfected with human LCB2 subunit of SPT (Homo sapiens, UniProt O15270) (assay: SPT flashplate assay). Conditions: microsomes of HEK 293 LCB2 cells, 3H-serine and palmitoyl CoA, phospholipid coated flashplate, 18-24 hours at room temperature; read-out: SPTISF IC50.
T1 construct: expressed in transfected cells; host or cells: HEK 293 cells stably transfected with LCB2; microsomal fraction
T1 sequence (O15270 1-562): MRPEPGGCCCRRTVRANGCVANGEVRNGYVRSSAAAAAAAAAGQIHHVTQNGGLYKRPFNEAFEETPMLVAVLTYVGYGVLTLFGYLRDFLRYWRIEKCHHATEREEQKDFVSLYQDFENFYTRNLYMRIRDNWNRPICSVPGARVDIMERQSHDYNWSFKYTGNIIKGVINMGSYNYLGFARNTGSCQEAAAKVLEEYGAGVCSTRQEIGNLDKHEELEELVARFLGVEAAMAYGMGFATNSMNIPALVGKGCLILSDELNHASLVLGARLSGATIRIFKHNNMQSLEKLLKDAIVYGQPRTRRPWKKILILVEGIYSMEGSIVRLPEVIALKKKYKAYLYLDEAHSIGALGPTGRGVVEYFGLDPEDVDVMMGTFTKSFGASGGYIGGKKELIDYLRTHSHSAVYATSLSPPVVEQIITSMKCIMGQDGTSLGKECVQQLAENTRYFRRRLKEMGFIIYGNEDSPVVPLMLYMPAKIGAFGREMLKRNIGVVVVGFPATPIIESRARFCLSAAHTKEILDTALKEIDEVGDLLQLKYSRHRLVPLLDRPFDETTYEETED
T1 sequence (O15269 1-473 partner): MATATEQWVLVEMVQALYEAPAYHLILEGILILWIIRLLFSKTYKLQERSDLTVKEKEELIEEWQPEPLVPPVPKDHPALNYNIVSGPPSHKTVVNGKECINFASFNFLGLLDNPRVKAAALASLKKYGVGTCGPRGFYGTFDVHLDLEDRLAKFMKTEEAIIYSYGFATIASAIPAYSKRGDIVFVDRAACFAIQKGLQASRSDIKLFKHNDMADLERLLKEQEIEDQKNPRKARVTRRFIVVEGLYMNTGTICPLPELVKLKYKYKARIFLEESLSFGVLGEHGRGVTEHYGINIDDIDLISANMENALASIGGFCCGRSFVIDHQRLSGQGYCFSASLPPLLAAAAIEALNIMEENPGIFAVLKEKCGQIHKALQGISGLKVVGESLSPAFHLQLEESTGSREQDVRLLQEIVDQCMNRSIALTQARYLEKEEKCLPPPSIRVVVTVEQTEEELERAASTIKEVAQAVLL
T1 sequence (Q969W0 1-71 partner): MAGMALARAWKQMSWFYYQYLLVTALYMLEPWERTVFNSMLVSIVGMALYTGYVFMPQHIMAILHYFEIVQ
Assay type: biochemical

Row | Structure (SMILES) | IC50
1 | CC1(C)CCN(C(=O)CN2CCC(n3c(=O)[nH]c4cc(S(C)(=O)=O)ccc43)CC2)CC1 [Example 40, 1-{1-[2-(4,4-dimethylpiperidin-1-yl)-2-oxoethyl]piperidin-4-yl}-5-(methylsulfonyl)-1,3-dihydro-2H-benzimidazol-2-one hydrochloride] | 0.0129 µM
2 | COC1CCC(C(=O)CN2CCC(n3c(=O)[nH]c4cc(S(C)(=O)=O)ccc43)CC2)CC1 (stereo not shown) [Example 43, 1-{1-[2-(4-methoxycyclohexyl)-2-oxoethyl]piperidin-4-yl}-5-(methylsulfonyl)-1,3-dihydro-2H-benzimidazol-2-one] | 0.301 µM
3 | CC(C)(C)C1CCC(C(=O)CN2CCC(n3c(=O)[nH]c4cc(S(C)(=O)=O)ccc43)CC2)CC1 (stereo not shown) [Example 45, 1-{1-[2-(4-tert-butylcyclohexyl)-2-oxoethyl]piperidin-4-yl}-5-(methylsulfonyl)-1,3-dihydro-2H-benzimidazol-2-one] | 0.333 µM
4 | CNC(=O)c1cc2[nH]c(=O)n(C3CC4CCC(C3)N4CC(=O)N3CCC(C)(OC)CC3)c2cc1F (stereo not shown) [Example 49, 6-fluoro-1-{8-[2-(4-methoxy-4-methylpiperidin-1-yl)-2-oxoethyl]-8-azabicyclo[3.2.1]oct-3-yl}-N-methyl-2-oxo-2,3-dihydro-1H-benzimidazole-5-carboxamide trifluloroacetate] | 0.165 µM
5 | COC1(C)CCN(C(=O)CN2CCC(n3c(=O)[nH]c4cc(C(C)=O)ccc43)CC2)CC1 [Example 55, 5-acetyl-1-{1-[2-(4-methoxy-4-methylpiperidin-1-yl)-2-oxoethyl]piperidin-4-yl}-1,3-dihydro-2H-benzimidazol-2-one; HCl salt] | 0.071 µM

The remaining lines, values ahead:

Row | IC50 | Structure (SMILES)
6 | 0.365 µM | CS(=O)(=O)c1ccc2c(c1)[nH]c(=O)n2C1CCN(CC(=O)C2CCCCC2)CC1 [Example 41, 1-[1-(2-cyclohexyl-2-oxoethyl)piperidin-4-yl]-5-(methylsulfonyl)-1,3-dihydro-2H-benzimidazol-2-one]
7 | 0.059 µM | CC1CCC(C(=O)CN2CCC(n3c(=O)[nH]c4cc(S(C)(=O)=O)ccc43)CC2)CC1 (stereo not shown) [Example 42, 1-{1-[2-(4-methylcyclohexyl)-2-oxoethyl]piperidin-4-yl}-5-(methylsulfonyl)-1,3-dihydro-2H-benzimidazol-2-one]
8 | 0.0517 µM | CS(=O)(=O)c1ccc2c(c1)[nH]c(=O)n2C1CCN(CC(=O)C2CCC(C(F)(F)F)CC2)CC1 (stereo not shown) [Example 44, 1-{1-[2-(4-trifluoromethylcyclohexyl)-2-oxoethyl]piperidin-4-yl}-5-(methylsulfonyl)-1,3-dihydro-2H-benzimidazol-2-one]
9 | 0.508 µM | COC1(C)CCC(C(=O)CN2CCC(n3c(=O)[nH]c4cc(S(C)(=O)=O)ccc43)CC2)CC1 (stereo not shown) [Example 47, 1-{1-[2-(4-methoxy-4-methylcyclohexyl)-2-oxoethyl]piperidin-4-yl}-5-(methylsulfonyl)-1,3-dihydro-2H-benzimidazol-2-one]
10 | 4.4 µM | CC1(C(=O)CN2CCC(n3c(=O)[nH]c4cc(S(C)(=O)=O)ccc43)CC2)CCCCC1 [Example 48, 1-{1-[2-(1-methylcyclohexyl)-2-oxoethyl]piperidin-4-yl}-5-(methylsulfonyl)-1,3-dihydro-2H-benzimidazol-2-one]
